Columns and labels:
[1] = Inhibition of p-gp
Cytochrome P450 1A2 = Cytochrome P450 1A2 (Homo sapiens, UniProt P05177); experiment: Inhibition of CYP1A2; format: ADME
[2] = biological target: Ribosomal protein S6 kinase beta-1 (Homo sapiens, UniProt P23443); experiment: Inhibition of P70S6K
[3] = biological target: Platelet-derived growth factor receptor alpha (Homo sapiens, UniProt P16234); experiment: Inhibition of PDGFRA
[4] = biological target: Non-receptor tyrosine-protein kinase TYK2 (Homo sapiens, UniProt P29597); experiment: Inhibition of TYK2
Chain of Non-receptor tyrosine-protein kinase TYK2 (P29597 whole entry): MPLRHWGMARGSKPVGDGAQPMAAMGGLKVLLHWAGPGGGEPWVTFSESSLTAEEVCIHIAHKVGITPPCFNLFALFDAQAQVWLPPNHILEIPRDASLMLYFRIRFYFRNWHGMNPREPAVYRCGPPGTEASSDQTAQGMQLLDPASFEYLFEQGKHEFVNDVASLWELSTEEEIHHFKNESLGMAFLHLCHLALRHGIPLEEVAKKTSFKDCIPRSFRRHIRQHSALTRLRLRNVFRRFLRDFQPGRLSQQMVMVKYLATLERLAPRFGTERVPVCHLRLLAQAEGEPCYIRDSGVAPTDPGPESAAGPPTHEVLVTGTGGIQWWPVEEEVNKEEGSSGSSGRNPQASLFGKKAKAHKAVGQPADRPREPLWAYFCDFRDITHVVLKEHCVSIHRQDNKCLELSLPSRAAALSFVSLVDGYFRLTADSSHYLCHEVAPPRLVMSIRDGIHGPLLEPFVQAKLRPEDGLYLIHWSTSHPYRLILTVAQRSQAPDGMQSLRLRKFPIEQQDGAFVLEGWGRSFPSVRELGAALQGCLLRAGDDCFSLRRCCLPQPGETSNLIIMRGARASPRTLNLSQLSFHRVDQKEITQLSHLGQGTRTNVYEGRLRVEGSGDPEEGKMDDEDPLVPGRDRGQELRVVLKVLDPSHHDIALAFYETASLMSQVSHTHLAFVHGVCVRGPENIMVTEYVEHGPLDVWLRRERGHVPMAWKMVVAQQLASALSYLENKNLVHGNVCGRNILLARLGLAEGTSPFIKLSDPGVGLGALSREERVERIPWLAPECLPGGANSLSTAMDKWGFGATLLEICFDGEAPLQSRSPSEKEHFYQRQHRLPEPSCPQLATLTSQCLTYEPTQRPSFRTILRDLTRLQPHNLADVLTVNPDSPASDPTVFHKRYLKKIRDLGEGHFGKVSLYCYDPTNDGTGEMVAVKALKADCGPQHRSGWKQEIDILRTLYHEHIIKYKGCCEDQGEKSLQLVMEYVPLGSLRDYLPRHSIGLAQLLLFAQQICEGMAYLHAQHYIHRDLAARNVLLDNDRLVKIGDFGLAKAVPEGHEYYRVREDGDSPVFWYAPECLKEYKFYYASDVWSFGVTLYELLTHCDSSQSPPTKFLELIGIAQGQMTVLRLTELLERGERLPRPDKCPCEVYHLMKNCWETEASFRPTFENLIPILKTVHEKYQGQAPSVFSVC

[5] = biological target: Inhibitor of nuclear factor kappa-B kinase subunit beta (Homo sapiens, UniProt O14920); experiment: Inhibition of IKKbeta
Chain of Inhibitor of nuclear factor kappa-B kinase subunit beta (O14920 whole entry): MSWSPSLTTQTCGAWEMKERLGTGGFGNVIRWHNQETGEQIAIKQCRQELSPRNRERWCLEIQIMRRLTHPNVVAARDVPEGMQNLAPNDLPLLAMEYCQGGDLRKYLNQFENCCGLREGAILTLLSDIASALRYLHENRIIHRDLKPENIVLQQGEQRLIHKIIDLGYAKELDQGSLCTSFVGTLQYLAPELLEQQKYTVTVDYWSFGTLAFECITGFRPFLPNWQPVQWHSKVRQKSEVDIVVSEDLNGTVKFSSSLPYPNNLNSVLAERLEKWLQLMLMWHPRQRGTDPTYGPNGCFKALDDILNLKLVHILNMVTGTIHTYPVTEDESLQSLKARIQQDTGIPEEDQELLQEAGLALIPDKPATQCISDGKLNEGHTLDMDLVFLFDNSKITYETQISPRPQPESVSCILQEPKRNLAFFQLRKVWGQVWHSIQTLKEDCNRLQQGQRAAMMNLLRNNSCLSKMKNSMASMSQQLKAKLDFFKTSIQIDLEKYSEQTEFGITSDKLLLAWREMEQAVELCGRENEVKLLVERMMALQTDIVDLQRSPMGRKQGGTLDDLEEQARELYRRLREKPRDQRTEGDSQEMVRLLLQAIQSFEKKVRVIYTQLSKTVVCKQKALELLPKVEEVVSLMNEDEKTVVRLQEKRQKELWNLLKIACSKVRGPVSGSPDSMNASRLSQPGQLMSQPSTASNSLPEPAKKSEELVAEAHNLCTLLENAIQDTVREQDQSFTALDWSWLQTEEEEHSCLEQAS

Canis familiaris = experiment: Dose normalized AUC in Beagle dog at 3 mg/kg, po; format: ADME, organism-based, Canis lupus familiaris; parameters: dose 3 mg/kg, route oral; conditions: in vivo
Mus musculus [6] = experiment: Dose normalized AUC in athymic nude mouse at 10 mg/kg, po; format: ADME, organism-based; parameters: dose 10 mg/kg, route oral; conditions: in vivo
Mus musculus [7] = experiment: Dose normalized AUC in athymic nude mouse at 10 mg/kg, iv; format: ADME, organism-based; parameters: dose 10 mg/kg, route intravenous; conditions: in vivo
[8] = Cmax in cynomolgus monkey at 3 mg/kg, iv; format: ADME, organism-based, Macaca fascicularis; parameters: dose 3 mg/kg, route intravenous; conditions: in vivo
[9] = Cmax in athymic nude mouse at 10 mg/kg, iv; format: ADME, organism-based; parameters: dose 10 mg/kg, route intravenous; conditions: in vivo
[10] = Oral bioavailability in cynomolgus monkey at 3 mg/kg; format: ADME, organism-based, Macaca fascicularis; conditions: in vivo
Mus musculus [11] = experiment: Inhibition of JAK2 in HEL 92.1.7 cells xenografted in po dosed nude mouse assessed as inhibition of STAT3 phosphorylation after 4 hrs; format: functional, organism-based
Mus musculus [12] = experiment: Inhibition of JAK2 in HEL 92.1.7 cells xenografted in nude mouse assessed as inhibition of STAT3 phosphorylation at 100 mg/kg, po after 4 hrs relative to vehicle-treated control; format: functional
[13] = biological target: T1, Tyrosine-protein kinase JAK3 (Homo sapiens, UniProt P52333)
T1 sequence (P52333 whole entry): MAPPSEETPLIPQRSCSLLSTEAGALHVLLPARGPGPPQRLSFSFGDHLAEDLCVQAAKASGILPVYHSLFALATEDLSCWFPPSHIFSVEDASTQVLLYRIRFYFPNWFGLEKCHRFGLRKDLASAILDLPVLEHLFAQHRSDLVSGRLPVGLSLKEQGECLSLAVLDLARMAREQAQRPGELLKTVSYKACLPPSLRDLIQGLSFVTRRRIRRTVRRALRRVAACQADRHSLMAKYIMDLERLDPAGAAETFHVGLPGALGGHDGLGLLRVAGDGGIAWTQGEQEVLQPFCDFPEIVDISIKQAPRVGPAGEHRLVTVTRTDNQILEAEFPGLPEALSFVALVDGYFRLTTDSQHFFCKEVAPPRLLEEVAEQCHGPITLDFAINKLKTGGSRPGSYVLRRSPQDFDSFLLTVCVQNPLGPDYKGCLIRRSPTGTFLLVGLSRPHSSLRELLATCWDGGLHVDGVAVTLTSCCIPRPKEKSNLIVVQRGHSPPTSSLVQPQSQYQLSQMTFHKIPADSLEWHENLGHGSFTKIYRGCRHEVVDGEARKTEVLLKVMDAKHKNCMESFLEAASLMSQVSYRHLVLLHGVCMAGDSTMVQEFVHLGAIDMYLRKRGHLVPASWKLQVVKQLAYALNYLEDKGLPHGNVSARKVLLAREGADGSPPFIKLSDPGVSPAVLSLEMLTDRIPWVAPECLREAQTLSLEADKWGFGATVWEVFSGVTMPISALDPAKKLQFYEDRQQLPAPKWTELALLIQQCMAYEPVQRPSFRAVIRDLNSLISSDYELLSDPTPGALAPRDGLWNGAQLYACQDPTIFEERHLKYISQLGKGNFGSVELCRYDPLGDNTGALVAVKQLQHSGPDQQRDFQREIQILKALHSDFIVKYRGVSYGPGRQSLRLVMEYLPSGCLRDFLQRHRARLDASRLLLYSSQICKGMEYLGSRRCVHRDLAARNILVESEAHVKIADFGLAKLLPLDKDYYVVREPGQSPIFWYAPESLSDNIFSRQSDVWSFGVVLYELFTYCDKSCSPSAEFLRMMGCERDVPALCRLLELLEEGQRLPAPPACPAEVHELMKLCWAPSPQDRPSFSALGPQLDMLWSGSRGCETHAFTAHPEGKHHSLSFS

Chain of Ribosomal protein S6 kinase beta-1 (P23443 whole entry): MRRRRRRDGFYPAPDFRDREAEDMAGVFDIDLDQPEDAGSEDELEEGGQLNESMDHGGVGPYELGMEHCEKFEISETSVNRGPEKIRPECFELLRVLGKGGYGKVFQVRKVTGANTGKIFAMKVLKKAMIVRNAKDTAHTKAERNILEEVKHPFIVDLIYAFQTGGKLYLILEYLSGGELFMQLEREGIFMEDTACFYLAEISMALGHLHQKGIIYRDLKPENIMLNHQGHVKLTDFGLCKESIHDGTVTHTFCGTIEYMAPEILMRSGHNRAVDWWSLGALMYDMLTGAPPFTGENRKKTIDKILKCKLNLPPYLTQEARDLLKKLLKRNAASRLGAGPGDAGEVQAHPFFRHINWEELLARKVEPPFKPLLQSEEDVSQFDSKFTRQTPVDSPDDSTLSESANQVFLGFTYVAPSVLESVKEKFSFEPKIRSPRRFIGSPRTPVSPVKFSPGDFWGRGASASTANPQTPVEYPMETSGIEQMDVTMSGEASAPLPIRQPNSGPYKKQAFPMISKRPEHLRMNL
Chain of Platelet-derived growth factor receptor alpha (P16234 whole entry): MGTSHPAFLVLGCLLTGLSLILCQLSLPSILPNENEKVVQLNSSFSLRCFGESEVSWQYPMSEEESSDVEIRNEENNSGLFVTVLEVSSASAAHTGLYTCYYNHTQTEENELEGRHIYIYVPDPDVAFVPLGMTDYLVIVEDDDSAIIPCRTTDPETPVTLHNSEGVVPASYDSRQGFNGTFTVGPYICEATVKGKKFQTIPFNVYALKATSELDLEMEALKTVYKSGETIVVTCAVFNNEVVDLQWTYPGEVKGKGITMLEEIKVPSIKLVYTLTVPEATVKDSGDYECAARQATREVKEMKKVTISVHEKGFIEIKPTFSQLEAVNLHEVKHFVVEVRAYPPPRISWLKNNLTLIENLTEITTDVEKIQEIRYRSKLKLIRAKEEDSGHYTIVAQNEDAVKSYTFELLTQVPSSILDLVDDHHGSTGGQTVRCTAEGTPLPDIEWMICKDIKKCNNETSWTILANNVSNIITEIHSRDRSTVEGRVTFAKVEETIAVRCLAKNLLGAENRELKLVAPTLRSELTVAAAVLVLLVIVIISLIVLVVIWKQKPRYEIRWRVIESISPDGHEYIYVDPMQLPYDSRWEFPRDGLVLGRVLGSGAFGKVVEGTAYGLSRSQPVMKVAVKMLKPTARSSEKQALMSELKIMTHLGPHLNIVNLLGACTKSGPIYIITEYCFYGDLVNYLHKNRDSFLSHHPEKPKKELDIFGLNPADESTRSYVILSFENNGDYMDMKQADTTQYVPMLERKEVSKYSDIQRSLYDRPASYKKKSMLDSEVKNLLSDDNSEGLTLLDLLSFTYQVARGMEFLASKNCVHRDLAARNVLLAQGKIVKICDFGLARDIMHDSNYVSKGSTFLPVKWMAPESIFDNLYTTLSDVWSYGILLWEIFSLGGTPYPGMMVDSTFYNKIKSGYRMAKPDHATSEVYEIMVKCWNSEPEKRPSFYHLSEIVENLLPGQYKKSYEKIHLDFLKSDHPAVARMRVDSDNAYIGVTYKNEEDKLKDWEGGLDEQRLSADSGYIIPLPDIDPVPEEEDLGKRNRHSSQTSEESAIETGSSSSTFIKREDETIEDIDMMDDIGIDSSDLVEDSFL
Chain of Cytochrome P450 1A2 (P05177 whole entry): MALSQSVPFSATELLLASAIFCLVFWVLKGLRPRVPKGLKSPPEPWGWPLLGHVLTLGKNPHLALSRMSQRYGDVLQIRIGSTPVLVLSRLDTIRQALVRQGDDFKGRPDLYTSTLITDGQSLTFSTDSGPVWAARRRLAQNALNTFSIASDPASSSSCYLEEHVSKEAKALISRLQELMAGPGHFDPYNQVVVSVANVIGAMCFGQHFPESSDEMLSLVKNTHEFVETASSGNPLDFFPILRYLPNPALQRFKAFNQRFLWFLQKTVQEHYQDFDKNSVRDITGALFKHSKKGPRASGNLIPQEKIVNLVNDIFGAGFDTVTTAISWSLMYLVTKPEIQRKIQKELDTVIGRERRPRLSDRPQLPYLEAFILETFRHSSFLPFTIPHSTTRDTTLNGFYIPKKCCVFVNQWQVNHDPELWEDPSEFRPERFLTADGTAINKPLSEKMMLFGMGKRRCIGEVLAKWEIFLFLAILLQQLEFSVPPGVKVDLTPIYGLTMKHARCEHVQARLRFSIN

Question: Which results are given for `O=C(Nc1ccc(-c2ccnc(Nc3ccc(N4CCOCC4)cc3)n2)cc1)[C@H]1CCCN1`?
Answer: INH [1]: > 20 µM; INH (Cytochrome P450 1A2): >= 20 uM; IC50 [2]: 314 nM; IC50 [3]: 547 nM; IC50 [4]: 348 nM; IC50 [5]: 375 nM; AUC/dose (Canis familiaris): 0.68 µM·kg·h/mg; AUC/dose (Mus musculus [6]): 0.21 µM·kg·h/mg; AUC/dose (Mus musculus [7]): 0.42 µM·kg·h/mg; Cmax [8]: 640 nM; Cmax [9]: 5240 nM; bioavailability [10]: 68.6%; IC50 (Mus musculus [11]): 13000 nM; ED50 (Mus musculus [11]; po): 210 mg/kg; inhibition in vivo at 100 mg/kg (Mus musculus [12]): 40%; IC50 [13]: 214 nM

Reference: ChEMBL document CHEMBL2203210, “SAR and in vivo evaluation of 4-aryl-2-aminoalkylpyrimidines as potent and selective Janus kinase 2 (JAK2) inhibitors” (Bioorg Med Chem Lett, 2012)
